The text below walks through data of PMC9668914, “Understanding VPAC receptor family peptide binding and selectivity” (Nature Communications, 2022).

Where two headings read alike, the source gives them in different places. No end group written: not given here.

One assay has as its target T1, VPAC1R (Homo sapiens, UniProt P32241).
T1 construct: An HA signal peptide was inserted in place of the native signal peptide of the receptors; HA signal peptide (replaces the native signal peptide) (N); 3C protease cleavage sites (between FLAG and receptor, and between receptor and His) (internal); expressed in transfected cells; host or cells: COS-7 (transient, PEI)
T1 sequence (P32241 31-457): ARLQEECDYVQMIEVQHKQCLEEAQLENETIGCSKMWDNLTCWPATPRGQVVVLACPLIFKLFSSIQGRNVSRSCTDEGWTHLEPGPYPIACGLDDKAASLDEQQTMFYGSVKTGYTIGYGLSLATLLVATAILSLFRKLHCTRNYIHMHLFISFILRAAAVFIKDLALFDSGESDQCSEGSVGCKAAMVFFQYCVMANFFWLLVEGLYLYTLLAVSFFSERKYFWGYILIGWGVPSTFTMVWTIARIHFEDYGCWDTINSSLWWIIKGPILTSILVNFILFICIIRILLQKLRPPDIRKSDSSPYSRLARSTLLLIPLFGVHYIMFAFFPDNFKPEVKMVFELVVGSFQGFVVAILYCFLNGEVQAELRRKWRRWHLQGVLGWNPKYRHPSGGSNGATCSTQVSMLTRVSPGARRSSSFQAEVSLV
Put plainly: cAMP accumulation, chimeric peptides (Fig. 5a). In kind it is cell-based. As to conditions: pEC50, VPAC1R cAMP, COS-7, three-parameter logistic. Here is the method:
COS-7 cells were used for the chimeric peptide and cysteine mutagenesis pharmacological assays due to their lack of endogenous expression of PAC1R and receptor activity-modifying proteins, reported to potentially heterodimerize with PAC1R and VPAC1R[42]. […] COS-7 cells were plated in 10 cm dishes at approximately 1 million cells/dish. Cells were transfected 24 h later, with 5 µg of either WT or mutant PAC1R or VPAC1R receptor DNA. DNA and PEI (in a 1:6 ratio) were each diluted in 150 mM NaCl, and then combined and incubated for 10 min, before the mixture was added to the 10 cm dish. The next day, cells were harvested from the 10 cm dishes using Trypsin-Versene (PBS + 0.5 mM EDTA, pH 7.4), and were seeded at a density of 15,000 cells/well into clear 96-well culture plates and incubated overnight at 37 °C in 5% CO2 for cAMP accumulation assay the next day.
(§1) The reaction was terminated after 30 min by aspiration of the buffer and addition of 50 μl of ice-cold ethanol. Upon evaporation of ethanol, 75 μl of lysis buffer (5 mM HEPES, 0.1% (w/v) OVA, 0.3% (w/v) Tween20, pH 7.4) was added to the cells. cAMP detection was performed using a LANCE cAMP Detection Kit (PerkinElmer) for the construct validation and cysteine mutagenesis pharmacological assays and cAMP Gs HiRange kit (Cisbio) for the chimeric peptide pharmacological assays. The plates were read using an EnVision plate reader with excitation at 320 nm and emission at 615 nm[45].
(§2) The pharmacological data in figures and tables are reported as mean + standard error of the mean (SEM) with the number of biological replicates indicated in the figure and table legends where “n” represents the number of biological replicates performed. Concentration-response data were analyzed in GraphPad Prism version 9.4.0 using a three-parameter logistic curve to derive pEC50 values for the cyclic AMP accumulation. Competition binding data were analyzed in GraphPad Prism using the one site—Fit log IC50 model to derive pIC50 values. For the cysteine mutagenesis data, comparisons of multiple different groups were performed using one-way analysis of variance (ANOVA), followed by Dunnett’s post-hoc test with the control group being the WT receptor, with significance accepted at p < 0.05. For the chimeric peptide data, comparisons of multiple different groups were performed using one-way ANOVA, followed by Tukey’s post-hoc test, with significance accepted at p < 0.05.
On the technique in general: cAMP levels reflect the balance of adenylyl cyclase and phosphodiesterase activity.

For the next assay, the target named is T2, PAC1R (Homo sapiens, UniProt P41586).
T2 construct: An HA signal peptide was inserted in place of the native signal peptide of the receptors; HA signal peptide (replaces the native signal peptide) (N); 3C protease cleavage sites (between FLAG and receptor, and between receptor and His) (internal); expressed in transfected cells; host or cells: COS-7 (transient, PEI)
T2 sequence (P41586 21-468): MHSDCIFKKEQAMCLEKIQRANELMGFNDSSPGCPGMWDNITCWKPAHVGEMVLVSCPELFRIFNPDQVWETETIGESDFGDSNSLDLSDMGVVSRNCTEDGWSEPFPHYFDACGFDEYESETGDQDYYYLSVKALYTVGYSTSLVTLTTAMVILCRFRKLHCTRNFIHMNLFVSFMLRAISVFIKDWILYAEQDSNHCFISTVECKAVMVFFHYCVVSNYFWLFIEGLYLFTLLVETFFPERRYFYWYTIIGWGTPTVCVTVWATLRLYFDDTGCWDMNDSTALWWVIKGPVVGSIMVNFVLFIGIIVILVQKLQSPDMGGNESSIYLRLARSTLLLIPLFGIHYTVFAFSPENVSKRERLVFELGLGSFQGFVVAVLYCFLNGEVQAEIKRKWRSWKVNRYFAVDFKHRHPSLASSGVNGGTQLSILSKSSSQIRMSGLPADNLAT
Put plainly: cAMP accumulation, chimeric peptides (Fig. 5b). The format is cell-based. As to conditions: COS-7, three-parameter logistic, read-out: pEC50, PAC1R cAMP (converted).
Description: An HA signal peptide was inserted in place of the native signal peptide of the receptors and a FLAG epitope was incorporated into the receptor N-terminus immediately after the signal peptide. A His tag was fused to C-terminus of the receptor. 3C protease cleavage sites were inserted between both the FLAG and His tags and the receptor. […] The following PAC1R and VPAC1R mutants were also generated using Quikchange mutagenesis: PAC1R C25A, PAC1R C219A, PAC1R C25A/C219A, VPAC1R C37A and VPAC1R C208A. For all PAC1R constructs, we used the PAC1R null (PAC1n) splice variant. A construct containing N-terminal NLuc immediately after the native signal peptide of PAC1R was also generated in pcDNA3.1.
COS-7 cells were used for the chimeric peptide and cysteine mutagenesis pharmacological assays due to their lack of endogenous expression of PAC1R and receptor activity-modifying proteins, reported to potentially heterodimerize with PAC1R and VPAC1R[42]. Cells were cultured in Dulbecco’s Modified Eagle’s Medium (DMEM) (Invitrogen) supplemented with 5% v/v heat-inactivated FBS at 37 °C and […] /5% CO2 in a humidified incubator. COS-7 cells were plated in 10 cm dishes at approximately 1 million cells/dish. Cells were transfected 24 h later, with 5 µg of either WT or mutant PAC1R or VPAC1R receptor DNA. DNA and PEI (in a 1:6 ratio) were each diluted in 150 mM NaCl, and then combined and incubated for 10 min, before the mixture was added to the 10 cm dish. The next day, cells were harvested from the 10 cm dishes using Trypsin-Versene (PBS + 0.5 mM EDTA, pH 7.4), and were seeded at a density of 15,000 cells/well into clear 96-well culture plates and incubated overnight at 37 °C in 5% CO2 for cAMP accumulation assay the next day.
as §1, §2

“HSDGVFTDNYTRLRKQMAVKKYLNSILN-NH2 [Gly4 VIP]”: the EC50 at VPAC1R (replicate n=1) is 1.26 nM; at VPAC1R (replicate n=2), 0.995 nM; on VPAC1R (replicate n=3) it was 1.64 nM; at VPAC1R (replicate n=4) it was 1.7 nM; on VPAC1R (replicate n=5), 1.39 nM; at PAC1R (replicate n=1) it was 28.7 nM. Further, the EC50 at PAC1R (replicate n=2) is 12 nM; on PAC1R (replicate n=3), 12.6 nM; at PAC1R (replicate n=4), 23.6 nM; at PAC1R (replicate n=5), 7.96 nM.

With `CC[C@H](C)[C@H](NC(=O)[C@H](C)NC(=O)[C@H](CC(=O)O)NC(=O)[C@H](CO)NC(=O)[C@@H](N)Cc1cnc[nH]1)C(=O)N[C@@H](Cc1ccccc1)C(=O)N[C@H](C(=O)N[C@@H](CC(=O)O)C(=O)N[C@@H](CO)C(=O)N[C@@H](Cc1ccc(O)cc1)C(=O)N[C@@H](CO)C(=O)N[C@@H](CCCNC(=N)N)C(=O)N[C@@H](Cc1ccc(O)cc1)C(=O)N[C@@H](CCCNC(=N)N)C(=O)N[C@@H](CCCCN)C(=O)N[C@@H](CCC(N)=O)C(=O)N[C@@H](CCSC)C(=O)N[C@@H](C)C(=O)N[C@H](C(=O)N[C@@H](CCCCN)C(=O)N[C@@H](CCCCN)C(=O)N[C@@H](Cc1ccc(O)cc1)C(=O)N[C@@H](CC(C)C)C(=O)N[C@@H](C)C(=O)N[C@@H](C)C(=O)N[C@H](C(=O)N[C@@H](CC(C)C)C(N)=O)C(C)C)C(C)C)[C@@H](C)O` [Ala4 PACAP27], the EC50 was 2.25 nM on VPAC1R (replicate n=1); 2.52 nM at VPAC1R (replicate n=2); 9.38 nM on VPAC1R (replicate n=3); 1.73 nM at VPAC1R (replicate n=4); 12.4 nM at VPAC1R (replicate n=5); 3.48 nM on PAC1R (replicate n=1). For the same compound, the EC50 on PAC1R (replicate n=2) is 1.67 nM; at PAC1R (replicate n=3) it was 2.05 nM; on PAC1R (replicate n=4) it was 8.65 nM; on PAC1R (replicate n=5), 3.32 nM.
